This note sets out measurements from PubChem BioAssay AID256 (DTP/NCI, 2004).

SMILES strings stand for the structures. Where “and” joins values, the source holds several entries; their conditions need not be identical. Equal values may be shown once. Inconclusive results and toxic doses are left out.

This test concerns CD2F1 mice, L1210 leukemia ip, survival T/C. The test can be described thus: NCI In Vivo Anticancer Drug Screen. Data for tumor model L1210 Leukemia (intraperitoneal) in CD2F1 (CDF1) mice. Conditions: endpoint: mean survival time, higher = longer survival. In a few lines:
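Transplantable tumor in mice; compound-treated vs vehicle-treated groups. Read-out = treated/control ratio of the measured endpoint.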

The mark [1] stands for this setting: dose: 100.0 mg/kg/injection, schedule: Q04DX002 (ip), vehicle: saline with Tween-80.
The mark [2] stands for this setting: dose: 200.0 mg/kg/injection, schedule: Q04DX002 (ip), vehicle: saline with Tween-80.
Where [3] appears, read: dose: 400.0 mg/kg/injection, schedule: Q04DX002 (ip), vehicle: saline with Tween-80.
Where [4] appears, read: dose: 100.0 mg/kg/injection, schedule: Q04DX003 (ip), vehicle: saline with Tween-80.

Turning to `Cn1c(=O)c2c(nc(N3CCOCC3)n2CCCNCC(O)c2cc(O)cc(O)c2)n(C)c1=O` (centres undefined), the T/C by setting is: (dose: 12.5 mg/kg/injection, schedule: Q01DX005 (ip), vehicle: water) 100 % of control; (dose: 25.0 mg/kg/injection, schedule: Q01DX005 (ip), vehicle: water) 96 % of control; (dose: 50.0 mg/kg/injection, schedule: Q01DX005 (ip), vehicle: water) 94 % of control; (dose: 100.0 mg/kg/injection, schedule: Q01DX005 (ip), vehicle: water) 97 % of control; (dose: 200.0 mg/kg/injection, schedule: Q01DX005 (ip), vehicle: water) 92 % of control.
With `Nc1nc(OCc2ccccc2)ncc1C(=O)NCC(=O)O`, the T/C is, setting by setting: (dose: 12.5 mg/kg/injection, schedule: Q01DX009 (ip), vehicle: saline with Tween-80) 105 % of control; (dose: 25.0 mg/kg/injection, schedule: Q01DX009 (ip), vehicle: saline with Tween-80) 100 % of control; (dose: 50.0 mg/kg/injection, schedule: Q01DX009 (ip), vehicle: saline with Tween-80) 104 % of control.
On to `COc1ccccc1NC(=O)Oc1ccc(Cl)c(C)c1`, for which the T/C reads like this: under setting [1], 103 % of control; under setting [2], 103 % of control; under setting [3], 96 % of control.
With `Cc1cn(C2CC3[O][Sn]([CH3])([CH3])[O]CC3O2)c(=O)[nH]c1=O` (centres undefined), the T/C reads like this: (dose: 12.5 mg/kg/injection, schedule: Q01DX005 (ip), vehicle: other) 105 % of control; (dose: 25.0 mg/kg/injection, schedule: Q01DX005 (ip), vehicle: other) 108 % of control; (dose: 50.0 mg/kg/injection, schedule: Q01DX005 (ip), vehicle: other) 103 % of control.
Turning to `Cc1cccc(NC(=O)C2CCC(C)(C(=O)O)C2(C)C)c1` (centres undefined), the T/C runs as follows: under setting [4], 94 % of control; (dose: 200.0 mg/kg/injection, schedule: Q04DX003 (ip), vehicle: saline with Tween-80) 90 % of control.
On to `O=C(COc1ccc(Cl)cc1)Oc1c(Cl)cc(Cl)cc1Cl`, for which the T/C is 98 % of control under setting [1], 98 % of control under setting [2] and 94 % of control under setting [3].
Take `CN(C)C=NC1(c2ccccc2)CCCCC1`: the T/C runs as follows: (dose: 25.0 mg/kg/injection, schedule: Q04DX003 (ip), vehicle: saline with Tween-80) 97 % of control; (dose: 50.0 mg/kg/injection, schedule: Q04DX003 (ip), vehicle: saline with Tween-80) 92 % of control; under setting [4], 91 % of control and 97 % of control.
Turning to `CC1(C)CC=C(c2ccccc2)OC1c1ccccc1` (centres undefined), the T/C reads like this: (dose: 100.0 mg/kg/injection, schedule: Q04DX002 (ip), vehicle: other) 98 % of control; (dose: 200.0 mg/kg/injection, schedule: Q04DX002 (ip), vehicle: other) 94 % of control; (dose: 400.0 mg/kg/injection, schedule: Q04DX002 (ip), vehicle: other) 102 % of control.
For `CCOS(=O)(=O)c1ccc(N)c([N+](=O)[O-])c1`, the T/C reads like this: (dose: 100.0 mg/kg/injection, schedule: Q01DX001 (ip), vehicle: Klucel (hydroxypropylcellulose) (HPC)) 100 % of control; (dose: 100.0 mg/kg/injection, schedule: Q01DX009 (ip), vehicle: Klucel (hydroxypropylcellulose) (HPC)) 100 % of control; (dose: 200.0 mg/kg/injection, schedule: Q01DX001 (ip), vehicle: Klucel (hydroxypropylcellulose) (HPC)) 111 % of control; (dose: 200.0 mg/kg/injection, schedule: Q01DX009 (ip), vehicle: Klucel (hydroxypropylcellulose) (HPC)) 100 % of control; (dose: 400.0 mg/kg/injection, schedule: Q01DX001 (ip), vehicle: Klucel (hydroxypropylcellulose) (HPC)) 100 % of control.
Take `COc1cc2ccc3c4cc5c(cc4c[n+](C)c3c2cc1OC)OCO5`: the T/C is, setting by setting: (dose: 10.0 mg/kg/injection, schedule: Q01DX009 (ip), vehicle: Klucel (hydroxypropylcellulose) (HPC)) 119 % of control; (dose: 20.0 mg/kg/injection, schedule: Q01DX009 (ip), vehicle: Klucel (hydroxypropylcellulose) (HPC)) 119 % of control; (dose: 40.0 mg/kg/injection, schedule: Q01DX009 (ip), vehicle: Klucel (hydroxypropylcellulose) (HPC)) 121 % of control; (dose: 80.0 mg/kg/injection, schedule: Q01DX009 (ip), vehicle: Klucel (hydroxypropylcellulose) (HPC)) 115 % of control; (dose: 160.0 mg/kg/injection, schedule: Q01DX009 (ip), vehicle: Klucel (hydroxypropylcellulose) (HPC)) 97 % of control.
With `COC12CCCC1S(=O)(=O)C2` (centres undefined), the T/C by setting is: (dose: 25.0 mg/kg/injection, schedule: Q04DX003 (ip), vehicle: saline) 101 % of control; (dose: 50.0 mg/kg/injection, schedule: Q04DX003 (ip), vehicle: saline) 108 % of control; (dose: 100.0 mg/kg/injection, schedule: Q04DX003 (ip), vehicle: saline) 95 % of control.
For `CN(C)C1=NC1(C)C.CN(C)C1=NC1(C)C.[Cl][Pd][Cl]`, the T/C by setting is: (dose: 3.13 mg/kg/injection, schedule: Q04DX003 (ip), vehicle: distilled water + Tween-80) 96 % of control; (dose: 6.25 mg/kg/injection, schedule: Q04DX003 (ip), vehicle: distilled water + Tween-80) 101 % of control; (dose: 12.5 mg/kg/injection, schedule: Q04DX003 (ip), vehicle: distilled water + Tween-80) 96 % of control; (dose: 25.0 mg/kg/injection, schedule: Q04DX003 (ip), vehicle: distilled water + Tween-80) 105 % of control; (dose: 50.0 mg/kg/injection, schedule: Q04DX003 (ip), vehicle: distilled water + Tween-80) 101 % of control; (dose: 100.0 mg/kg/injection, schedule: Q04DX003 (ip), vehicle: distilled water + Tween-80) 114 % of control.
`N=c1ccn(C2OC(CO)C(O)C2O)c(=O)n1O` (centres undefined): the T/C is, setting by setting: (dose: 16.0 mg/kg/injection, schedule: Q01DX008 (ip), vehicle: saline) 156 % of control; (dose: 16.0 mg/kg/injection, schedule: Q01DX008 (oral), vehicle: saline) 110 % of control; (dose: 32.0 mg/kg/injection, schedule: Q01DX008 (ip), vehicle: saline) 161 % of control; (dose: 64.0 mg/kg/injection, schedule: Q01DX008 (ip), vehicle: saline) 170 % of control; (dose: 128.0 mg/kg/injection, schedule: Q01DX001 (ip), vehicle: saline) 101 % of control; (dose: 128.0 mg/kg/injection, schedule: Q01DX001 (oral), vehicle: saline) 96 % of control. For the same compound, the T/C is 176 % of control (dose: 128.0 mg/kg/injection, schedule: Q01DX008 (ip), vehicle: saline); 156 % of control (dose: 128.0 mg/kg/injection, schedule: Q01DX008 (oral), vehicle: saline); 206 % of control (dose: 128.0 mg/kg/injection, schedule: Q01DX009 (ip), vehicle: saline); 103 % of control (dose: 128.0 mg/kg/injection, schedule: Q04DX003 (oral), vehicle: saline); 102 % of control (dose: 256.0 mg/kg/injection, schedule: Q01DX001 (ip), vehicle: saline); 100 % of control (dose: 256.0 mg/kg/injection, schedule: Q01DX001 (oral), vehicle: saline). Further, the T/C is, setting by setting: (dose: 256.0 mg/kg/injection, schedule: Q01DX009 (ip), vehicle: saline) 214 % of control; (dose: 256.0 mg/kg/injection, schedule: Q04DX003 (oral), vehicle: saline) 110 % of control; (dose: 512.0 mg/kg/injection, schedule: Q01DX001 (ip), vehicle: saline) 111 % of control; (dose: 512.0 mg/kg/injection, schedule: Q01DX001 (oral), vehicle: saline) 103 % of control; (dose: 512.0 mg/kg/injection, schedule: Q01DX009 (ip), vehicle: saline) 120 % of control; (dose: 512.0 mg/kg/injection, schedule: Q01DX009 (oral), vehicle: saline) 167 % of control. Also, the T/C is 153 % of control (dose: 512.0 mg/kg/injection, schedule: Q04DX003 (ip), vehicle: saline); 108 % of control (dose: 1024.0 mg/kg/injection, schedule: Q01DX001 (ip), vehicle: saline); 122 % of control (dose: 1024.0 mg/kg/injection, schedule: Q01DX001 (oral), vehicle: saline); 116 % of control (dose: 1024.0 mg/kg/injection, schedule: Q01DX009 (ip), vehicle: saline); 210 % of control (dose: 1024.0 mg/kg/injection, schedule: Q01DX009 (oral), vehicle: saline); 155 % of control (dose: 1024.0 mg/kg/injection, schedule: Q04DX003 (ip), vehicle: saline). In addition, the T/C (dose: 1024.0 mg/kg/injection, schedule: Q04DX003 (oral), vehicle: saline) was 155 % of control.
